In US20260200919A1, “SUBSTITUTED AMINOPYRIDINE COMPOUNDS AND METHODS OF TREATING DISEASE USING SAME” (Atavistik Bio, Inc., priority 2023, published 2026):

How the values were obtained:
[1] = biological target: T1, human recombinant kinase full-length AKT1 E17K (Homo sapiens, UniProt P31749, E17K); experiment: AKT1 E17K kinase assay (TR-FRET, Lance); assay type: biochemical; conditions: 0.6 nM AKT1 E17K, 50 nM Ulight-CREBtide, either 50 μM ATP or 2 mM ATP (not specified which), 60 min at RT
T1 construct: Purified human recombinant kinase full-length AKT1 E17K was expressed in insect cells; made in house; host or cells: insect cells
T1 sequence (P31749 whole entry E17K): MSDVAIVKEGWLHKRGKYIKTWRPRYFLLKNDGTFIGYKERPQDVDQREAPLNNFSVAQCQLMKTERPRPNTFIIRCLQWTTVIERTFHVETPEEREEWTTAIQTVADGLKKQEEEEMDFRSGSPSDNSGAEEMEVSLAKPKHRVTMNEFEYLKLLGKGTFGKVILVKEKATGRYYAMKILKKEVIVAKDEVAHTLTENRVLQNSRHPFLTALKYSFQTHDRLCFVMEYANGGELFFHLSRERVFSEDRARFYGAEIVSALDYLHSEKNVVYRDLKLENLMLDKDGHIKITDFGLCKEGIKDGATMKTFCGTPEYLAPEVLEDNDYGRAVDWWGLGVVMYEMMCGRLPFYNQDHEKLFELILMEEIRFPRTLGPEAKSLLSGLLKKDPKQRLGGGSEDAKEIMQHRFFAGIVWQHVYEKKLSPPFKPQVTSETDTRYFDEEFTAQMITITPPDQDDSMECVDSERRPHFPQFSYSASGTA
Outline: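 Full-length human AKT1 E17K (insect cell-expressed, PDPK1-activated; 0.6 nM) with 50 nM ULight-CREBtide in HEPES pH 7.5 with MgCl2 and DTT. ATP at 50 μM or 2 mM, 1% DMSO, 10-point dose response, 60 min at RT.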

[2] = biological target: T2, human recombinant kinase full-length wildtype AKT1 (Homo sapiens, UniProt P31749); experiment: AKT1 kinase assay (wildtype, TR-FRET, Lance); assay type: biochemical; conditions: 0.6 nM wildtype AKT1, 50 nM Ulight-CREBtide, either 50 μM ATP or 2 mM ATP (not specified which), 60 min at RT
T2 construct: Purified human recombinant kinase full-length wildtype AKT1 was expressed in insect cells; made in house; host or cells: insect cells
T2 sequence (P31749 whole entry): as the sequence (P31749 whole entry E17K) above, with K17E counted along it
Outline: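 Insect-cell-expressed AKT1, activated in vitro by PDPK1, was used at 0.6 nM with 50 nM Ulight-CREBtide and 50 μM or 2 mM ATP in 50 mM HEPES pH 7.5, 1% DMSO, over a 10-point dose response.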

Compound | IC50 [1] | IC50 [2]
Nc1ncccc1-c1nc2ccc(-c3ccccc3)nc2n1-c1ccc(C2CCN(Cc3ccc(C(=O)O)cc3)CC2)cc1 [Compound 139, 4-((4-(4-(2-(2-aminopyridin-3-yl)-5-phenyl-3H-imidazo[4,5-b]pyridin-3-yl)phenyl)piperidin-1-yl)methyl)benzoic acid] | > 500 nM | < 500 nM
Cc1cc(C(=O)O)c(F)cc1C(=O)Nc1ccc(-n2c(-c3cccnc3N)nc3ccc(-c4ccccc4)nc32)c(C)n1 [Compound 149] | 50 to 200 nM | < 500 nM
Nc1ncccc1-c1nc2ccc(-c3ccccc3)nc2n1-c1ccc(NC(=O)c2cc(F)c(C(=O)O)cc2F)nc1 [Compound 152] | 50 to 200 nM | < 500 nM
Cc1cc(C(=O)Nc2ccc(-n3c(-c4cccnc4N)nc4ccc(-c5ccccc5)nc43)c(C)n2)c(C)cc1C(=O)O [Compound 155] | > 500 nM | < 500 nM
C[C@@H](c1ccc(C(=O)O)cc1F)N1CC(c2ccc(-n3c(-c4cccnc4N)nc4ccc(-c5ccccc5)nc43)cc2)C1 [Compound 159] | 200 to 500 nM | < 500 nM
C[C@H](c1ccc(C(=O)O)cc1F)N1CC(c2ccc(-n3c(-c4cccnc4N)nc4ccc(-c5ccccc5)nc43)cc2)C1 [Compound 160] | 50 to 200 nM | < 500 nM
CC(C)[C@H](c1ccc(C(=O)O)cc1)N1CC(c2ccc(-n3c(-c4cccnc4N)nc4ccc(-c5ccccc5)nc43)cc2)C1 [Compound 161] | 200 to 500 nM | < 500 nM
CC(C)[C@@H](c1ccc(C(=O)O)cc1)N1CC(c2ccc(-n3c(-c4cccnc4N)nc4ccc(-c5ccccc5)nc43)cc2)C1 [Compound 162] | 200 to 500 nM | < 500 nM
CC(c1ccc(C(=O)O)c(F)c1)N1CC(c2ccc(-n3c(-c4cccnc4N)nc4ccc(-c5ccccc5)nc43)cc2)C1 (stereo not shown) [Compound 163] | 50 to 200 nM | < 500 nM
C[C@@H](c1ccc(C(=O)O)cc1C(F)(F)F)N1CC(c2ccc(-n3c(-c4cccnc4N)nc4ccc(-c5ccccc5)nc43)cc2)C1 [Compound 164] | > 500 nM | < 500 nM
C[C@H](c1ccc(C(=O)O)cc1C(F)(F)F)N1CC(c2ccc(-n3c(-c4cccnc4N)nc4ccc(-c5ccccc5)nc43)cc2)C1 [Compound 165] | 50 to 200 nM | < 500 nM
CC(c1ccc(C(=O)O)cc1)N1CC(c2ccc(-n3c(-c4cccnc4N)nc4ccc(-c5ccccc5)nc43)cc2F)C1 (stereo not shown) [Compound 166, 4-(1-(3-(4-(2-(2-aminopyridin-3-yl)-5-phenyl-3H-imidazo[4,5-b]pyridin-3-yl)-2-fluorophenyl)azetidin-1-yl)ethyl)benzoic acid] | 200 to 500 nM | < 500 nM
CC(c1ccc(C(=O)O)cc1)N1CC(c2ccc(-n3c(-c4cccnc4N)nc4ccc(-c5ccccc5)nc43)cn2)C1 (stereo not shown) [Compound 167, 4-(1-(3-(5-(2-(2-aminopyridin-3-yl)-5-phenyl-3H-imidazo[4,5-b]pyridin-3-yl)pyridin-2-yl)azetidin-1-yl)ethyl)benzoic acid] | > 500 nM | < 500 nM
Nc1ncccc1-c1nc2ccc(-c3ccccc3)nc2n1-c1ccc(C2CN(Cc3ccc(C(=O)O)cc3)C2)nc1 [Compound 168, 4-[[3-[5-[2-(2-amino-3-pyridyl)-5-phenyl-imidazo[4,5-b]pyridin-3-yl]-2-pyridyl]azetidin-1-yl]methyl]benzoic acid] | > 500 nM | < 500 nM
CC(c1ccc(C(=O)O)cc1)N1CCC(c2ccc(-n3c(-c4cccnc4N)nc4ccc(-c5ccccc5)nc43)cc2)CC1 (stereo not shown) [Compound 169, 4-(1-(4-(4-(2-(2-aminopyridin-3-yl)-5-phenyl-3H-imidazo[4,5-b]pyridin-3-yl)phenyl)piperidin-1-yl)ethyl)benzoic acid] | 200 to 500 nM | < 500 nM
CC(c1ccc(C(=O)O)cc1)N1CCCC(c2ccc(-n3c(-c4cccnc4N)nc4ccc(-c5ccccc5)nc43)cc2)C1 (stereo not shown) [Compound 170, 4-(1-(3-(4-(2-(2-aminopyridin-3-yl)-5-phenyl-3H-imidazo[4,5-b]pyridin-3-yl)phenyl)piperidin-1-yl)ethyl)benzoic acid] | > 500 nM | < 500 nM
CC(c1ccc(C(=O)O)cc1)N1CCC(c2ccc(-n3c(-c4cccnc4N)nc4ccc(-c5ccccc5)nc43)cc2)C1 (stereo not shown) [Compound 171, 4-(1-(3-(4-(2-(2-aminopyridin-3-yl)-5-phenyl-3H-imidazo[4,5-b]pyridin-3-yl)phenyl)pyrrolidin-1-yl)ethyl)benzoic acid] | 200 to 500 nM | < 500 nM
CC(C)c1ccc2nc(-c3cccnc3N)n(-c3ccc(NC(=O)c4ccc(C(=O)O)cc4)nc3)c2c1 [Compound 172, 4-((5-(2-(2-aminopyridin-3-yl)-6-isopropyl-1H-benzo[d]imidazol-1-yl)pyridin-2-yl)carbamoyl)benzoic acid] | > 500 nM | < 500 nM
CC(C)c1ccc2nc(-c3cccnc3N)n(-c3ccc(C4CN(Cc5ccc(C(=O)O)cc5)C4)cc3)c2n1 [Compound 173, 4-((3-(4-(2-(2-aminopyridin-3-yl)-5-isopropyl-3H-imidazo[4,5-b]pyridin-3-yl)phenyl)azetidin-1-yl)methyl)benzoic acid] | > 500 nM | < 500 nM

Second part, the compound after the results:

IC50 [1] | IC50 [2] | Compound
50 to 200 nM | < 500 nM | Nc1ncccc1-c1nc2ccc(-c3ccc(F)cc3)nc2n1-c1ccc(NC(=O)c2ccc(C(=O)O)cc2)nc1 [Compound 109, 4-((5-(2-(2-aminopyridin-3-yl)-5-(4-fluorophenyl)-3H-imidazo[4,5-b]pyridin-3-yl)pyridin-2-yl)carbamoyl)benzoic acid]
< 50 nM | < 500 nM | Nc1ncccc1-c1nc2ccc(-c3ccccc3)nc2n1-c1ccc(NC(=O)c2ccc(C(=O)O)c(F)c2)nc1 [Compound 117]
< 50 nM | < 500 nM | Cc1cc(C(=O)Nc2ccc(-n3c(-c4cccnc4N)nc4ccc(-c5ccccc5)nc43)cn2)ccc1C(=O)O [Compound 118, 4-((5-(2-(2-aminopyridin-3-yl)-5-phenyl-3H-imidazo[4,5-b]pyridin-3-yl)pyridin-2-yl)carbamoyl)-2-methylbenzoic acid]
50 to 200 nM | < 500 nM | Cc1cc(C(=O)Nc2ccc(-n3c(-c4cccnc4N)nc4ccc(-c5ccccc5)nc43)cn2)c(F)cc1C(=O)O [Compound 145]
50 to 200 nM | < 500 nM | Cc1nc(NC(=O)c2cc(F)c(C(=O)O)cc2F)ccc1-n1c(-c2cccnc2N)nc2ccc(-c3ccccc3)nc21 [Compound 147]
50 to 200 nM | < 500 nM | Cc1nc(NC(=O)c2ccc(C(=O)O)cc2F)ccc1-n1c(-c2cccnc2N)nc2ccc(-c3ccccc3)nc21 [Compound 148]
< 50 nM | < 500 nM | Nc1ncccc1-c1nc2ccc(-c3ccccc3)nc2n1-c1ccc(NC(=O)c2cc(F)c(C(=O)O)c(F)c2)nc1 [Compound 150]
< 50 nM | < 500 nM | Nc1ncccc1-c1nc2ccc(-c3ccccc3)nc2n1-c1ccc(NC(=O)c2ccc(C(=O)O)nc2)nc1 [Compound 151]
< 50 nM | < 500 nM | Cc1nc(NC(=O)c2ccc(C(=O)O)cc2)ccc1-n1c(-c2cccnc2N)nc2ccc(-c3ccccc3)nc21 [Compound 153]
< 50 nM | < 500 nM | Cc1nc(NC(=O)c2ccc(C(=O)O)c(F)c2)ccc1-n1c(-c2cccnc2N)nc2ccc(-c3ccccc3)nc21 [Compound 154]
